PubChem BioAssay AID248 (DTP/NCI, 2004)
“And” between values parts separate entries of the source, which are not always exact repeats. Identical values can stand only once. Toxic doses and inconclusive results are not listed. Rule as the data show it: active = T/C of 150% or more; inactive = T/C below 125%.

Tested on: L1210 leukemia ip in BDF1 mice, survival T/C
Test: NCI In Vivo Anticancer Drug Screen. Data for tumor model L1210 Leukemia (intraperitoneal) in B6D2F1 (BDF1) mice
Settings: endpoint: mean survival time, higher = longer survival
Outline: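 Antitumor effect is assessed in tumor-bearing animals. Survival in the compound arm is compared with a vehicle-dosed control arm and expressed as their quotient.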

[1] = dose: 100.0 mg/kg/injection, schedule: Q01DX001 (ip), vehicle: saline
[2] = dose: 200.0 mg/kg/injection, schedule: Q01DX001 (ip), vehicle: saline
[3] = dose: 400.0 mg/kg/injection, schedule: Q01DX001 (ip), vehicle: saline
[4] = dose: 100.0 mg/kg/injection, schedule: Q04DX002 (ip), vehicle: Klucel (hydroxypropylcellulose) (HPC)
[5] = dose: 200.0 mg/kg/injection, schedule: Q04DX002 (ip), vehicle: Klucel (hydroxypropylcellulose) (HPC)
[6] = dose: 400.0 mg/kg/injection, schedule: Q04DX002 (ip), vehicle: Klucel (hydroxypropylcellulose) (HPC)
[7] = dose: 200.0 mg/kg/injection, schedule: Q01DX009 (ip), vehicle: Klucel (hydroxypropylcellulose) (HPC)
[8] = dose: 50.0 mg/kg/injection, schedule: Q01DX001 (ip), vehicle: carboxymethylcellulose (CMC)
[9] = dose: 100.0 mg/kg/injection, schedule: Q01DX001 (ip), vehicle: carboxymethylcellulose (CMC)
[10] = dose: 100.0 mg/kg/injection, schedule: Q04DX003 (ip), vehicle: saline with Tween-80
[11] = dose: 200.0 mg/kg/injection, schedule: Q04DX003 (ip), vehicle: saline with Tween-80
[12] = dose: 400.0 mg/kg/injection, schedule: Q04DX003 (ip), vehicle: saline with Tween-80
[13] = dose: 50.0 mg/kg/injection, schedule: Q01DX001 (ip), vehicle: saline

Measured: T/C

CCN(CC)CCN(CC(=O)O)CC(=O)O
inactive: [1] 108 % of control and 98 % of control | [2] 90 % of control and 102 % of control | [3] 96 % of control and 102 % of control

O=C1c2cccc3cc([N+](=O)[O-])cc(c23)C(=O)N1CCc1ccccn1
inactive: [4] 94 % of control | [5] 102 % of control | [6] 108 % of control

CCOC(=O)/C=C(\C)c1ccc([N+](=O)[O-])cc1
inactive: dose: 100.0 mg/kg/injection, schedule: Q01DX001 (ip), vehicle: Klucel (hydroxypropylcellulose) (HPC) 107 % of control | dose: 200.0 mg/kg/injection, schedule: Q01DX001 (ip), vehicle: Klucel (hydroxypropylcellulose) (HPC) 100 % of control | dose: 400.0 mg/kg/injection, schedule: Q01DX001 (ip), vehicle: Klucel (hydroxypropylcellulose) (HPC) 97 % of control

O=C(c1ccccc1)c1cccc2ccccc12
inactive: dose: 50.0 mg/kg/injection, schedule: Q04DX002 (ip), vehicle: Klucel (hydroxypropylcellulose) (HPC) 109 % of control | [4] 105 % of control | [5] 105 % of control | [6] 109 % of control

CCCCCCCCC(CCCCCCCC)C1CCCCC1
inactive: dose: 100.0 mg/kg/injection, schedule: Q01DX001 (ip), vehicle: saline with Tween-80 98 % of control | dose: 200.0 mg/kg/injection, schedule: Q01DX001 (ip), vehicle: saline with Tween-80 95 % of control | dose: 400.0 mg/kg/injection, schedule: Q01DX001 (ip), vehicle: saline with Tween-80 93 % of control

CCOc1ccc(NC(=O)Nc2cccc(F)c2)cc1
inactive: dose: 12.5 mg/kg/injection, schedule: Q01DX009 (ip), vehicle: Klucel (hydroxypropylcellulose) (HPC) 88 % of control | dose: 25.0 mg/kg/injection, schedule: Q01DX009 (ip), vehicle: Klucel (hydroxypropylcellulose) (HPC) 90 % of control | dose: 50.0 mg/kg/injection, schedule: Q01DX009 (ip), vehicle: Klucel (hydroxypropylcellulose) (HPC) 88 % of control | [7] 90 % of control

CCC(=O)c1ccc(OC)cc1
inactive: dose: 100.0 mg/kg/injection, schedule: Q04DX002 (ip), vehicle: saline with Tween-80 91 % of control | dose: 200.0 mg/kg/injection, schedule: Q04DX002 (ip), vehicle: saline with Tween-80 91 % of control | dose: 400.0 mg/kg/injection, schedule: Q04DX002 (ip), vehicle: saline with Tween-80 91 % of control

CN=C(NC)c1cccc(NC(=O)c2ccc(C(=O)Nc3cccc(C(=NC)NC)c3)c(N)c2)c1
inactive: dose: 0.5 mg/kg/injection, schedule: Q01DX015 (ip), vehicle: water 102 % of control | dose: 1.0 mg/kg/injection, schedule: Q01DX015 (ip), vehicle: water 102 % of control | dose: 2.0 mg/kg/injection, schedule: Q01DX015 (ip), vehicle: water 110 % of control | dose: 3.75 mg/kg/injection, schedule: Q01DX Z (ip), vehicle: water 91 % of control | dose: 4.0 mg/kg/injection, schedule: Q01DX015 (ip), vehicle: water 102 % of control | dose: 7.5 mg/kg/injection, schedule: Q01DX Z (ip), vehicle: water 87 % of control | dose: 15.0 mg/kg/injection, schedule: Q01DX Z (ip), vehicle: water 93 % of control

CCC1CC2c3cc(OC)c(OC)cc3CCN2CC1(O)c1ccccc1 (stereo unspecified)
inactive: dose: 25.0 mg/kg/injection, schedule: Q01DX001 (ip), vehicle: carboxymethylcellulose (CMC) 92 % of control | dose: 25.0 mg/kg/injection, schedule: Q04DX003 (ip), vehicle: carboxymethylcellulose (CMC) 97 % of control | [8] 95 % of control | dose: 50.0 mg/kg/injection, schedule: Q04DX003 (ip), vehicle: carboxymethylcellulose (CMC) 97 % of control | [9] 103 % of control and 109 % of control | dose: 100.0 mg/kg/injection, schedule: Q04DX003 (ip), vehicle: carboxymethylcellulose (CMC) 100 % of control

NC(=Nc1ccc(N)cc1)C(N)=Nc1ccc(N)cc1
inactive: dose: 50.0 mg/kg/injection, schedule: Q01DX009 (ip), vehicle: saline with Tween-80 97 % of control | dose: 100.0 mg/kg/injection, schedule: Q01DX009 (ip), vehicle: saline with Tween-80 95 % of control and 98 % of control | [10] 96 % of control | dose: 200.0 mg/kg/injection, schedule: Q01DX009 (ip), vehicle: saline with Tween-80 106 % of control | [11] 98 % of control | dose: 400.0 mg/kg/injection, schedule: Q01DX009 (ip), vehicle: saline with Tween-80 96 % of control and 112 % of control | [12] 91 % of control

S=C(N/N=C\c1ccc2c(c1)OCO2)Nc1ccc2cn[nH]c2c1
inactive: [8] 97 % of control | [9] 100 % of control | dose: 200.0 mg/kg/injection, schedule: Q01DX001 (ip), vehicle: carboxymethylcellulose (CMC) 91 % of control

[Cl][Ni].[NH-]C(Cc1ccccc1)C(=O)O (stereo unspecified)
inactive: dose: 6.25 mg/kg/injection, schedule: Q04DX003 (ip), vehicle: saline 98 % of control | dose: 12.5 mg/kg/injection, schedule: Q04DX003 (ip), vehicle: saline 98 % of control | dose: 25.0 mg/kg/injection, schedule: Q04DX003 (ip), vehicle: saline 91 % of control

Cc1ccc(NC(=O)Oc2ccc3ccccc3c2)cc1NC(=O)Oc1ccc2ccccc2c1
inactive: dose: 100.0 mg/kg/injection, schedule: Q01DX009 (ip), vehicle: other 91 % of control | dose: 200.0 mg/kg/injection, schedule: Q01DX009 (ip), vehicle: other 93 % of control | dose: 400.0 mg/kg/injection, schedule: Q01DX009 (ip), vehicle: other 91 % of control

COc1c(NS(=O)(=O)c2ccccc2)cc2c3c(cccc13)CC2
inactive: [10] 97 % of control | [11] 93 % of control | [12] 101 % of control

COC1OC(COS(C)(=O)=O)C(OS(C)(=O)=O)C(OC(=O)c2ccccc2)C1OC(=O)c1ccccc1 (stereo unspecified)
inactive: [4] 109 % of control | [5] 101 % of control | [6] 101 % of control

OC(C1CO1)(C(F)(F)F)C(F)(F)F (stereo unspecified)
inactive: dose: 100.0 mg/kg/injection, schedule: Q01DX009 (ip), vehicle: saline 98 % of control | [10] 92 % of control | dose: 200.0 mg/kg/injection, schedule: Q01DX009 (ip), vehicle: saline 106 % of control | [11] 91 % of control | [12] 97 % of control

O=C(Nc1ccccc1)C(CCCCN1C(=O)c2ccccc2C1=O)N1C(=O)c2ccccc2C1=O (stereo unspecified)
inactive: dose: 100.0 mg/kg/injection, schedule: Q01DX009 (ip), vehicle: Klucel (hydroxypropylcellulose) (HPC) 95 % of control | [7] 106 % of control | dose: 400.0 mg/kg/injection, schedule: Q01DX009 (ip), vehicle: Klucel (hydroxypropylcellulose) (HPC) 100 % of control

CCOc1ccc(N=Nc2ccc(N)cc2N)cc1
inactive: [4] 96 % of control | [5] 101 % of control | [6] 96 % of control

COC(c1ccccc1)(c1ccccc1)c1ccccc1
inactive: [13] 91 % of control | [1] 103 % of control | [2] 101 % of control | [3] 95 % of control

CC[N+](C)(CC)CCNC(=O)Nc1ccc(C)c(NC(=O)NCC[N+](C)(CC)CC)c1
inactive: dose: 1.56 mg/kg/injection, schedule: Q01DX009 (ip), vehicle: saline 97 % of control | dose: 3.12 mg/kg/injection, schedule: Q01DX009 (ip), vehicle: saline 95 % of control | dose: 3.12 mg/kg/injection, schedule: Q04DX002 (ip), vehicle: saline 90 % of control

CCOC(=O)C1C(=O)C(CN(CCCl)CCCl)C(=O)C(C(=O)OCC)C1c1cc(OC)c(OC)c(OC)c1 (stereo unspecified)
inactive: [4] 114 % of control | [5] 102 % of control | [6] 111 % of control

CCCN(CCC)C[Si](C)(C)C
inactive: dose: 12.5 mg/kg/injection, schedule: Q01DX001 (ip), vehicle: saline 121 % of control | dose: 25.0 mg/kg/injection, schedule: Q01DX001 (ip), vehicle: saline 105 % of control | [13] 111 % of control

CC1(C)C(=O)NC2(O)CCCC21 (stereo unspecified)
inactive: dose: 15.0 mg/kg/injection, schedule: Q01DX001 (ip), vehicle: saline 101 % of control

Cc1cc[n+](CCCCCCCCCCO)cc1C
inactive: dose: 87.5 mg/kg/injection, schedule: Q01DX001 (ip), vehicle: saline 97 % of control

C#CC(C)(C)N1CCCCC1
inactive: dose: 25.0 mg/kg/injection, schedule: Q04DX003 (ip), vehicle: Klucel (hydroxypropylcellulose) (HPC) 110 % of control | dose: 50.0 mg/kg/injection, schedule: Q04DX003 (ip), vehicle: Klucel (hydroxypropylcellulose) (HPC) 106 % of control
